# Assay: Drug-drug interaction / pharmacokinetic study of single drug and combination with nifedipine by gavage
# Conditions: CD1 mice, ketoconazole 30 mg/kg alone vs ketoconazole 30 mg/kg + nifedipine 15 mg/kg
# Description: The dosing solution was prepared on the day of administration. An appropriate amount of nifedipine was precisely weighed into a centrifuge tube, then an appropriate volume of 0.5% MC was added thereto and vortexed to dissolve, resulting in a dosing solution with a concentration of 1.5 mg/mL.
# Appropriate amounts of ketoconazole and isavuconazonium sulfate (CAS #946075-13-4) were precisely weighed and placed into separate centrifuge tubes. An appropriate volume of 0.5% MC was added to each tube and vortexed to dissolve, resulting in dosing solutions with concentrations of 3 mg/mL and 12 mg/mL, respectively.
# An appropriate amount of the compound of the example of the present disclosure was precisely weighed into a centrifuge tube, then an appropriate volume of 16% SBECD was added thereto and vortexed to dissolve, resulting in a dosing solution with a concentration of 10 mg/mL.
# CD1 mice, 6 to 8 weeks old, male, were divided into seven groups. […]
smiles,measurement,value
CC(=O)N1CCN(c2ccc(OCC3COC(Cn4ccnc4)(c4ccc(Cl)cc4Cl)O3)cc2)CC1 (stereo not shown) [ketoconazole],"exposure to ketoconazole, monotherapy group vs combination therapy group",not significantly different
